Experimental data taken from publication PMC8552062, “Contributions of UDP-Glucuronosyltransferases to Human Hepatic and Intestinal Metabolism of Ticagrelor and Inhibition of UGTs and Cytochrome P450 Enzymes by Ticagrelor and its Glucuronidated Metabolite” (Frontiers in Pharmacology, 2021).

Assays:
Format in all cases: in vitro ADME
[1] = molecular target: T1, CYP2D6 (Homo sapiens, UniProt P10635); assay: CYP2D6 inhibition in HLM (dextromethorphan O-demethylase); conditions: HLM 0.2 mg/ml
T1 construct: co-incubation ticagrelor-O-Glu with selective P450 probe substrates in HLM; tissue XenoTech LLC; host or cells: pooled human liver microsomes
T1 sequence (P10635 whole entry): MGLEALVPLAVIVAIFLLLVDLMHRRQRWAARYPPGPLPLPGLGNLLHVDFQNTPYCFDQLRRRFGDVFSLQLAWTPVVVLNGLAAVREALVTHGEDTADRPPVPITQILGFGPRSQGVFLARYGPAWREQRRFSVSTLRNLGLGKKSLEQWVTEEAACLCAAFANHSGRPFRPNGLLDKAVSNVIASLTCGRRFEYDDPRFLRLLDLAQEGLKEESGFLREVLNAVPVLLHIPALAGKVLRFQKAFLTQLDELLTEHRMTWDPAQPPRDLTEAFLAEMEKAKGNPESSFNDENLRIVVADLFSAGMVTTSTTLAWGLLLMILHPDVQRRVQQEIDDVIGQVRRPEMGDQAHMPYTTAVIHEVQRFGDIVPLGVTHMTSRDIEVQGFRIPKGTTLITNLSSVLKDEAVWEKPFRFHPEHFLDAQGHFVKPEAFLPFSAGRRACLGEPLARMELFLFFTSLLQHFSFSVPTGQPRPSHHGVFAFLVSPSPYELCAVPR
Procedure: (§1) The potential inhibitory effects of ticagrelor-O-Glu on the activities of major CYPs, i.e., CYP2B6, CYP2C8, CYP2C9, CYP2C19, CYP2D6, and CYP3A4, were evaluated by co-incubation ticagrelor-O-Glu with selective P450 probe substrates in HLM. Each incubation mixture containing 0.2 mg/ml HLM, ticagrelor-O-Glu and respective substrate (the final substrate concentrations are close to or less than the Km values: 150 μM bupropion, 1.26 μM amodiaquine, 10 μM diclofenac, 20 μM mephenytoin, 20 μM dextromethorphan and 80 μM testosterone (in house data)) in potassium phosphate buffer (100 mM, pH 7.4) was pre-incubated at 37°C for 5 min. Then, NADPH (10 mM) was added to initiate the reaction. The final volume of the incubation mixture was 100 μl. After incubation at 37°C for specific time points, the reaction was terminated by the addition of 200 μl of ice-cold methanol solution with internal standards (diazepam and furafylline). […] The formation of respective metabolites was determined to reflect P450 isoform activities. The metabolites quantified for CYP2B6, CYP2C8, CYP2C9, CYP2C19, CYP2D6, and CYP3A4 were hydroxy bupropion, N-Desethyl amodiaquine, 4′-hydroxylation diclofenac, S-4-hydroxy mephenytoin, dextrorphan and 6β-hydroxy testosterone, respectively.
(§2) The percent inhibition relative to the control was calculated to indicate the UGTs or CYPs inhibition. […]

[2] = molecular target: T2, CYP2C9 (Homo sapiens, UniProt P11712); assay: CYP2C9 inhibition in HLM (diclofenac 4′-hydroxylase)
T2 construct: co-incubation ticagrelor-O-Glu with selective P450 probe substrates in HLM; tissue XenoTech LLC; host or cells: pooled human liver microsomes
T2 sequence (P11712 whole entry): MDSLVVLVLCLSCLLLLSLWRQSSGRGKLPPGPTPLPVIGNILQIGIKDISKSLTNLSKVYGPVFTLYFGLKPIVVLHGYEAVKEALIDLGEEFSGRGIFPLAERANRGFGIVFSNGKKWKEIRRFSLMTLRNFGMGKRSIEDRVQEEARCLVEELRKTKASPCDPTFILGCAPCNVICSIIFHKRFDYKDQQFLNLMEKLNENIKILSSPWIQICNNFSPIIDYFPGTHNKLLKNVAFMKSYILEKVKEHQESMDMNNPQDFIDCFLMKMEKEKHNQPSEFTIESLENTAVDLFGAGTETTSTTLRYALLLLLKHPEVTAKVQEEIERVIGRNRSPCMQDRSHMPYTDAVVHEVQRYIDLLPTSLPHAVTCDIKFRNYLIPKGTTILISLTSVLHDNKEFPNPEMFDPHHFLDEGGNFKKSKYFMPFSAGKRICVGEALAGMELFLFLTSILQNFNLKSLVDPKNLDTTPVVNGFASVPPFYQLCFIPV
Procedure: The potential inhibitory effects of ticagrelor-O-Glu on the activities of major CYPs, i.e., CYP2B6, CYP2C8, CYP2C9, CYP2C19, CYP2D6, and CYP3A4, were evaluated by co-incubation ticagrelor-O-Glu with selective P450 probe substrates in HLM. Each incubation mixture containing 0.2 mg/ml HLM, ticagrelor-O-Glu and respective substrate (the final substrate concentrations are close to or less than the Km values: 150 μM bupropion, 1.26 μM amodiaquine, 10 μM diclofenac, 20 μM mephenytoin, 20 μM dextromethorphan and 80 μM testosterone (in house data)) in potassium phosphate buffer (100 mM, pH 7.4) was pre-incubated at 37°C for 5 min. Then, NADPH (10 mM) was added to initiate the reaction. The final volume of the incubation mixture was 100 μl. After incubation at 37°C for specific time points, the reaction was terminated by the addition of 200 μl of ice-cold methanol solution with internal standards (diazepam and furafylline). Preliminary screening experiments with selected concentrations of ticagrelor-O-Glu (0, 1, 10, or 100 μM of the final concentration) were carried out to determine the inhibition potency. For those that produced approximately 50% inhibition of CYPs enzyme activities at a ticagrelor-O-Glu concentration between 1 and 100 μM, IC50 was further determined with various concentrations of ticagrelor-O-Glu (0, 1, 5, 10, 20, 50, and 100 μM). All the experiments were performed in triplicates. The supernatant was obtained after centrifugation at 14,000 rpm for 10 min and injected into LC-MS/MS for the analysis of the respective metabolites. The formation of respective metabolites was determined to reflect P450 isoform activities. The metabolites quantified for CYP2B6, CYP2C8, CYP2C9, CYP2C19, CYP2D6, and CYP3A4 were hydroxy bupropion, N-Desethyl amodiaquine, 4′-hydroxylation diclofenac, S-4-hydroxy mephenytoin, dextrorphan and 6β-hydroxy testosterone, respectively.
as §2

[3] = molecular target: T3, CYP2C8 (Homo sapiens, UniProt P10632); assay: CYP2C8 inhibition in HLM (amodiaquine N-deethylase); conditions: HLM 0.2 mg/ml
T3 construct: co-incubation ticagrelor-O-Glu with selective P450 probe substrates in HLM; tissue XenoTech LLC; host or cells: pooled human liver microsomes
T3 sequence (P10632 whole entry): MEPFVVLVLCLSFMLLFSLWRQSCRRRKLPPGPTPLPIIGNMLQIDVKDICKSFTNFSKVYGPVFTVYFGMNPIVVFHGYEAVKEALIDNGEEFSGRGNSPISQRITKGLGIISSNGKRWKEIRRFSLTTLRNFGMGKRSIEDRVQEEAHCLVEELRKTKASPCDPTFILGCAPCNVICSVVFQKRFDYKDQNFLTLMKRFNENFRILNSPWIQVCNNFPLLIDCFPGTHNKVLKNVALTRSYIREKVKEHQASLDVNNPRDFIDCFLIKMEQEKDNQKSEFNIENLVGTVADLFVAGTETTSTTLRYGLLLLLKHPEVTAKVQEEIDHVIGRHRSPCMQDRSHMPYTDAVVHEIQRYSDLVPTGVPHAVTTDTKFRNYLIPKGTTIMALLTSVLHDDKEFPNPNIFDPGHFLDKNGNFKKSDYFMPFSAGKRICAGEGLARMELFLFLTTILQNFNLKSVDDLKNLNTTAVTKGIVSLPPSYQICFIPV
Procedure: as §1, §2

[4] = molecular target: T4, recombinant human UGT2B4 (Homo sapiens, UniProt P06133); assay: Ticagrelor glucuronidation screen, recombinant human UGT2B4; conditions: 10 μM ticagrelor
T4 construct: purchased BD Gentest; host or cells: baculovirus-infected insect cells
T4 sequence (P06133 24-528): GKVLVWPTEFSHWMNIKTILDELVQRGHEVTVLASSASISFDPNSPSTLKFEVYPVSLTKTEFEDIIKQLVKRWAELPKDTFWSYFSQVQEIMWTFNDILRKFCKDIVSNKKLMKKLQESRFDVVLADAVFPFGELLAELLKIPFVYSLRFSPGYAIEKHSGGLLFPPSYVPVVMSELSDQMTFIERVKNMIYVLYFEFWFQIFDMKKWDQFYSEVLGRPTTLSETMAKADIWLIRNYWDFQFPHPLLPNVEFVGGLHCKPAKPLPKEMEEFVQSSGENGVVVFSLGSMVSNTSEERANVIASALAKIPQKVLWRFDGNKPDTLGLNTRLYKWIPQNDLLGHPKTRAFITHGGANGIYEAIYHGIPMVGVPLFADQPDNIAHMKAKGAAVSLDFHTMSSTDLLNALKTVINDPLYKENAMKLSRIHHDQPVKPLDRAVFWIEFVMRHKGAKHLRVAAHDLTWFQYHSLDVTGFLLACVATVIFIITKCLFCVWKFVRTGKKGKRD
Procedure: (§3) Ticagrelor glucuronidation was investigated in an in vitro incubation system by using HLM, HIM, and recombinant human UGTs. The incubation system consisted of enzyme sources (HLM, HIM, or human recombinant UGTs), various concentrations of ticagrelor (dissolved in 50% methanol, 1% v/v, 1, 2, 5, 10, 20, 50, 100, 200, 500 μM of final concentration), alamethicin (50 μg/mg protein), 5 mM MgCl2, 100 mM tris-HCL buffer (pH 7.4), and 5 mM UDPGA in a total volume of 100 μl. Alamethicin is a pore-forming polypeptide used to activate UGTs in HLM and HIM ([Fisher et al., 2000]). Preliminary studies were conducted to determine the optimal protein concentrations and incubation times. Linear conditions of ticagrelor-O-Glu formation from ticagrelor, i.e., HLM, 0.2 mg of protein/ml and 60 min, HIM, 0.2 mg of protein/ml and 60 min, and recombinant human UGTs, 0.2 mg of protein/ml and 60 min were selected. The incubation mixture without UDPGA was placed on ice for 15 min to activate UGT by alamethicin. After pre-incubation for 5 min at 37°C, the reactions were started by the addition of UDPGA. After another 60 min of incubation at 37°C, the reaction was terminated by adding 100 μl of acetonitrile containing internal standard (diazepam). The mixture vortexed for 2 min and then centrifuged at 14,000 rpm for 10 min at 4°C. […]

[5] = molecular target: T5, UGT2B7 (Homo sapiens, UniProt P16662); assay: Ticagrelor glucuronidation by recombinant human UGT2B7; set-up: purchased BD Gentest; host or cells: baculovirus-infected insect cells; conditions: recombinant human UGT2B7, pH 7.4
T5 sequence (P16662 24-529): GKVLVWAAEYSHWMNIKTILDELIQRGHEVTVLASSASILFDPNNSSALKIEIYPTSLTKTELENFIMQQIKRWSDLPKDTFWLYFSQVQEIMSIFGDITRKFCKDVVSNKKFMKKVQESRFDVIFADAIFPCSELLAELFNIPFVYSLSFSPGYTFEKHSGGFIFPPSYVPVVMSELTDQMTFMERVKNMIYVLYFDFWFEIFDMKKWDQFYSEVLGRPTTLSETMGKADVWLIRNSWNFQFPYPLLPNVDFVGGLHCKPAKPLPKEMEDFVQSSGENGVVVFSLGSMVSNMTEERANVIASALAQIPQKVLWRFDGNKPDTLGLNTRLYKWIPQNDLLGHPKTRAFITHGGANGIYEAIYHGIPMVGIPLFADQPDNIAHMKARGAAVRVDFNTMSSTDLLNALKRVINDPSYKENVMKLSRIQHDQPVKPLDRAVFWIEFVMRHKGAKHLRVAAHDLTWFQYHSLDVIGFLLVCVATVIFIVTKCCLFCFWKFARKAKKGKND
Procedure: as §3, with “alamethicin.” for “alamethicin. After pre-incubation for 5 min at 37°C, the reactions were started by the addition of UDPGA. After another 60 min of incubation at 37°C, the reaction was terminated by adding 100 μl of acetonitrile containing internal standard (diazepam). The mixture vortexed for 2 min and then centrifuged at 14,000 rpm for 10 min at 4°C.”
Kinetic analyses were performed using the mean values of triplicate determinations with either pooled HLM, HIM, or recombinant human UGTs. All data were analyzed by nonlinear regression analysis using the GraphPad Prism 6 (GraphPad Software Inc., CA, United States). […] Intrinsic clearance (CLint) was calculated by dividing Vmax by Km.

Row | IC50 [1] [µM] | IC50 ([2]; CYP2C9, diclofenac 4′-hydroxylase, HLM 0.2 mg/ml) [µM] | inhibition at 10 μM ([2]; human, human liver microsomes, pH 7.4, probe diclofenac (10 μM), 4′-hydroxylation diclofenac formation, HLM, 10 μM ticagrelor-O-Glu, read-out: inhibition of CYP2C9 enzyme activity) [%] | inhibition at 100 µM ([2]; human, human liver microsomes, pH 7.4, probe diclofenac (10 μM), 4′-hydroxylation diclofenac formation, HLM, 100 μM ticagrelor-O-Glu, read-out: inhibition of CYP2C9 enzyme activity) [%] | IC50 [3] [µM] | glucuronidation activity for ticagrelor [4] | microsomal CLint [5] [µL/min/mg] | Compound
1 | > 100 | 20 | 44 | 73.5 | > 100 | – | – | CCCSc1nc(N[C@@H]2C[C@H]2c2ccc(F)c(F)c2)c2nnn([C@@H]3C[C@H](OCCO[C@@H]4O[C@H](C(=O)O)[C@@H](O)[C@H](O)[C@H]4O)[C@@H](O)[C@H]3O)c2n1 [Ticagrelor-O-Glu, ticagrelor-O-glucuronide]
2 | – | – | – | – | – | no glucuronidation activities | 0.02 | CCCSc1nc(N[C@@H]2C[C@H]2c2ccc(F)c(F)c2)c2nnn([C@@H]3C[C@H](OCCO)[C@@H](O)[C@H]3O)c2n1 [Ticagrelor]
